Source: patent publication US20260132123A1, “ABAD INHIBITOR COMPOUNDS” (UNIVERSITY COURT OF THE UNIVERSITY OF ST ANDREWS, priority 2021, published 2026)

Target: T1, 17β-HSD10 (Homo sapiens, UniProt Q99714)
T1 construct: Histev (histidine tag with TEV site) (N, cleaved yes); made in house; host or cells: E. coli BL21-CodonPlus
T1 sequence (Q99714 1-261): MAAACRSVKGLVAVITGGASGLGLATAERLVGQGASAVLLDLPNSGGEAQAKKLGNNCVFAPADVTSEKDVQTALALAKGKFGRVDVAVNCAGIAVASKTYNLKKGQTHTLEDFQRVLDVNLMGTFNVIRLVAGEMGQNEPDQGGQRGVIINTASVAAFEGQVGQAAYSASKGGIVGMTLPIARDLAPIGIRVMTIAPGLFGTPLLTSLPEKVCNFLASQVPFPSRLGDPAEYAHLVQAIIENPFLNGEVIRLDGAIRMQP
Assay: 17β-HSD10 (ABAD) enzyme inhibition assay, NADH oxidation read at 340 nm (primary screen and dose response)
Type: biochemical
Settings: for EC50 / Max. Effect (%) / Hill Slope / Max. Fit / Min. Fit: recombinant 17βHSD10 enzyme assay; for Hill Slope / Max. Fit / Min. Fit: curve fit
Method in brief: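 Screening used a 35 min room-temperature endpoint A340 read after compound (10 μM) and enzyme (2.5 nM, E. coli-expressed, His-tag removed) preincubated 15 min, then 100 μM NADH plus acetoacetyl-CoA added. Dose-response runs tracked absorbance kinetically 45 min; buffer pH 7.4 Tris with BSA, DTT.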

COc1cccc(-c2ccccc2[C@H]2CCCN2C(=O)Cc2ccccc2)c1 [ESC1002506]
EC50: > 20 µM | Max. Effect (%): 8%

CC(=O)NCCCN(C)c1cccc(N(CC(C)C)C(=O)c2ccccc2F)c1 [ESC1002507]
EC50: > 20 µM | Max. Effect (%): 4%

CCCCN(C(=O)c1ccccc1F)c1cccc(N(C)Cc2c[nH]cn2)c1 [ESC1002508, N-butyl-2-fluoro-N-[3-[1H-imidazol-4-ylmethyl(methyl)amino]phenyl]benzamide]
EC50: 1.55 µM | Max. Effect (%): 92% | Hill Slope: 1.2 | Max. Fit: 96 | Min. Fit: 0

Cc1cc(CN(C(=O)c2ccccc2F)c2cccc(N(C)Cc3c[nH]cn3)c2)no1 [ESC1002516, 2-fluoro-N-[3-[1H-imidazol-4-ylmethyl(methyl)amino]phenyl]-N-[(5-methylisoxazol-3-yl)methyl]benzamide]
EC50: > 20 µM | Max. Effect (%): 46%

CN(Cc1c[nH]cn1)c1cccc(N(CC(C)(C)C)C(=O)c2ccccc2F)c1 [ESC1002517, N-(2,2-dimethylpropyl)-2-fluoro-N-[3-[1H-imidazol-4-ylmethyl(methyl)amino]phenyl]benzamide]
EC50: 2 µM | Max. Effect (%): 92% | Hill Slope: 0.87 | Max. Fit: 106 | Min. Fit: −1

CC(C)CN(C(=O)c1ccccc1F)c1cccc(N(C)CC(N)=O)c1 [ESC1002570]
EC50: > 20 µM | Max. Effect (%): 48%

CC(C)CN(C(=O)c1ccccc1F)c1cccc(NCC(N)=O)c1 [ESC1002571]
EC50: > 20 µM | Max. Effect (%): 13%

CNC(=O)CN(C)c1cccc(N(CC(C)C)C(=O)c2ccccc2F)c1 [ESC1002572]
EC50: 11.2 µM | Max. Effect (%): 65% | Hill Slope: 0.98 | Max. Fit: 100 | Min. Fit: 2

CNC(=O)CNc1cccc(N(CC(C)C)C(=O)c2ccccc2F)c1 [ESC1002573]
EC50: > 20 µM | Max. Effect (%): 4%

COc1ccc(C(=O)N(CC(C)C)c2cccc(N(C)Cc3c[nH]cn3)c2)c(F)c1 [ESC1002576]
EC50: 0.245 µM | Max. Effect (%): 98% | Hill Slope: 1.1 | Max. Fit: 97 | Min. Fit: −3

CC(C)CN(C(=O)c1ccccc1F)c1cccc(N(C)CCO)c1 [ESC1002577]
EC50: 8.13 µM | Max. Effect (%): 72% | Hill Slope: 0.95 | Max. Fit: 100 | Min. Fit: −1

CC(C)CN(C(=O)c1ccc[nH]c1=O)c1cccc(N(C)Cc2c[nH]cn2)c1 [ESC1002614, N-[3-[1H-imidazol-4-ylmethyl(methyl)amino]phenyl]-N-isobutyl-2-oxo-1H-pyridine-3-carboxamide]
EC50: > 20 µM | Max. Effect (%): 30%

CC(C)CN(C(=O)c1ccccc1S(C)(=O)=O)c1cccc(N(C)Cc2c[nH]cn2)c1 [ESC1002622]
EC50: 6.92 µM | Max. Effect (%): 76% | Hill Slope: 0.9 | Max. Fit: 108 | Min. Fit: −6

CC(C)CN(C(=O)c1ccccc1F)c1cccc(NCc2c[nH]cn2)c1 [ESC1002631]
EC50: 9.33 µM | Max. Effect (%): 64% | Hill Slope: 0.94 | Max. Fit: 100 | Min. Fit: −6

CC(C)CN(C(=O)c1ccccc1F)c1cccc(NCc2c[nH]c(C(C)C)n2)c1 [ESC1002632]
EC50: > 20 µM | Max. Effect (%): 18%

CC(C)CN(C(=O)c1ccccc1F)c1cccc(N(C)Cc2c[nH]c(C(C)C)n2)c1 [ESC1002633]
17β-HSD10 / ABAD activity in words (SAR discussion): further losses in potency | EC50: > 20 µM | Max. Effect (%): 45% | Hill Slope: 0.93 | Max. Fit: 100 | Min. Fit: −3

C#CCN(C)c1cccc(N(CC(C)C)C(=O)c2ccccc2F)c1 [ESC1002636]
EC50: 5.5 µM | Max. Effect (%): 79% | Hill Slope: 0.98 | Max. Fit: 101 | Min. Fit: −1

CC(C)CN(C(=O)c1cnccn1)c1cccc(N(C)Cc2c[nH]cn2)c1 [ESC1002656, N-[3-[1H-imidazol-4-ylmethyl(methyl)amino]phenyl]-N-isobutyl-pyrazine-2-carboxamide]
EC50: > 20 µM | Max. Effect (%): 45%

CC(C)CN(C(=O)c1ccccc1F)c1cccc(N(C)Cc2c[nH]c(C3CC3)n2)c1 [ESC1002674]
EC50: 8.32 µM | Max. Effect (%): 59% | Hill Slope: 1.2 | Max. Fit: 80 | Min. Fit: −5

CC(C)CN(C(=O)c1ccccc1F)c1cccc(N(C)Cc2c[nH]nn2)c1 [ESC1002675]
EC50: 4.47 µM | Max. Effect (%): 75% | Hill Slope: 1.2 | Max. Fit: 87 | Min. Fit: −2

CC(C)CN(C(=O)c1ccccc1F)c1cccc(N(C)Cc2cn[nH]c2I)c1 [ESC1002687]
EC50: 11 µM | Max. Effect (%): 64% | Hill Slope: 1 | Max. Fit: 100 | Min. Fit: −6

CC(C)CN(C(=O)c1ccncn1)c1cccc(N(C)Cc2c[nH]cn2)c1 [ESC1002703]
EC50: 8.71 µM | Max. Effect (%): 52% | Hill Slope: 1.3 | Max. Fit: 70 | Min. Fit: −5

CC(C)CN(C(=O)c1ccccc1F)c1cccc(N(CCO)Cc2c[nH]cn2)c1 [ESC1002723]
EC50: 5.13 µM | Max. Effect (%): 81% | Hill Slope: 1.1 | Max. Fit: 94 | Min. Fit: 0

CC(=O)CN(CC(C)=O)c1cccc(N(CC(C)C)C(=O)c2ccccc2F)c1 [ESC1002724]
EC50: > 20 µM | Max. Effect (%): −3%

CC(C)CN(C(=O)c1ccccc1F)c1cccc(N(C)CC#N)c1 [ESC1002762]
EC50: > 20 µM | Max. Effect (%): 39%

CC(C)CN(C(=O)c1ccccc1F)c1cccc(NCc2nc[nH]n2)c1 [ESC1002763]
EC50: > 20 µM | Max. Effect (%): 8%

CC(C)CN(C(=O)c1ccccc1F)c1cccc(-n2cnnc2)c1 [ESC1002764]
EC50: > 20 µM | Max. Effect (%): 4%

CC(C)CN(C(=O)c1ccccc1F)c1cccc(-n2ccnc2)c1 [ESC1002765]
EC50: > 20 µM | Max. Effect (%): −2%

CC(C)CN(C(=O)c1ccccc1F)c1cccc(N(C)Cc2nc[nH]n2)c1 [ESC1002770]
EC50: 2.69 µM | Max. Effect (%): 86% | Hill Slope: 1.2 | Max. Fit: 91 | Min. Fit: −4

CC(C)CN(C(=O)c1ccccc1F)c1cccc(N(C)Cc2c[nH]cn2)n1 [ESC1002795]
EC50: 5.62 µM | Max. Effect (%): 77% | Hill Slope: 1.1 | Max. Fit: 93 | Min. Fit: 0

CC(C)CN(C(=O)c1ccccc1F)c1cccc(N(C)Cc2cc[nH]n2)n1 [ESC1002796]
EC50: > 20 µM | Max. Effect (%): 47% | Hill Slope: 1.2 | Max. Fit: 100 | Min. Fit: −4

CC(C)CN(C(=O)c1ccccc1F)c1cncc(N(C)Cc2c[nH]cn2)c1 [ESC1002802]
EC50: > 20 µM | Max. Effect (%): 20%

Cc1ccc(C(=O)N(CC(C)C)c2nccc(N(C)Cc3cnc[nH]3)n2)cc1 [ESC1002817]
EC50: > 20 µM | Max. Effect (%): 4%

Cc1cn[nH]c1C(=O)N1CCC[C@H]1c1ccccc1 [S1−T1, 4-methyl-5-{[(2S)-2-phenylpyrrolidin-1-yl]carbonyl}-1H-pyrazole]
EC50: > 20 µM | Max. Effect (%): 26.5%

O=C(c1ncc[nH]1)N1CCC[C@H]1c1ccccc1 [S1−T2, 2-{[(2S)-2-phenylpyrrolidin-1-yl]carbonyl}-1H-imidazole]
EC50: > 20 µM | Max. Effect (%): 6.4%

O=C(c1ncn[nH]1)N1CCC[C@H]1c1ccccc1 [S1−T3, 5-{[(2S)-2-phenylpyrrolidin-1-yl]carbonyl}-1H-1,2,4-triazole]
EC50: > 20 µM | Max. Effect (%): 7.1%

O=C(c1ccon1)N1CCC[C@H]1c1ccccc1 [S1−T5, 3-{[(2S)-2-phenylpyrrolidin-1-yl]carbonyl}-1,2-oxazole]
EC50: > 20 µM | Max. Effect (%): 27.5%

O=C(c1nc(Br)no1)N1CCC[C@H]1c1ccccc1 [S1−T6]
EC50: > 20 µM | Max. Effect (%): 20.5%

O=C(c1ncco1)N1CCC[C@H]1c1ccccc1 [S1−T9, 2-{[(2S)-2-phenylpyrrolidin-1-yl]carbonyl}-1,3-oxazole]
EC50: > 20 µM | Max. Effect (%): 26.6%

O=C(c1cocn1)N1CCC[C@H]1c1ccccc1 [S1−T10, 4-{[(2S)-2-phenylpyrrolidin-1-yl]carbonyl}-1,3-oxazole]
EC50: > 20 µM | Max. Effect (%): 20.5%

O=C(c1cccnc1)N1CCC[C@H]1c1ccccc1 [S1−T12, 3-{[(2S)-2-phenylpyrrolidin-1-yl]carbonyl}pyridine]
EC50: > 20 µM | Max. Effect (%): 9.1%

O=C(c1ccncc1)N1CCC[C@H]1c1ccccc1 [S1−T13, 4-{[(2S)-2-phenylpyrrolidin-1-yl]carbonyl}pyridine]
EC50: > 20 µM | Max. Effect (%): 22.3%

O=C(c1[nH]ncc1Cl)N1CCC[C@H]1c1ccccc1 [S1−T14, 4-chloro-5-{[(2S)-2-phenylpyrrolidin-1-yl]carbonyl}-1H-pyrazole]
EC50: > 20 µM | Max. Effect (%): 20.8%

O=C(c1[nH]ncc1Cl)N1CCC[C@H]1c1ccccn1 [S1−T17, 2-[(2S)-1-[(4-chloro-1H-pyrazol-5-yl)carbonyl]pyrrolidin-2-yl]pyridine]
EC50: > 20 µM | Max. Effect (%): 17.5%
